By MIC is commonly meant the smallest concentration in the dilution series that meets the test's criterion for growth inhibition. One may read the Ki as the dissociation constant of the complex between target and ligand, obtained from inhibition or displacement.

The text below walks through data of patent US20230218707A1, “NOVEL PEPTIDE INHIBITORS OF BETA-LACTAMASE AGAINST ANTIBIOTIC RESISTANCE” (priority 2020, published 2023).

Experiment [1] concerns Escherichia coli ATCC 35218. Type of experiment: cell-based. The following applies: for enhancement of amoxicillin killing of ATCC35218: 32 μg/ml amoxicillin, FIG. 1 / FIG. 2A. The protocol:
The activity of peptide inhibitors was assessed in Escherichia coli ATCC 35218 strain, which is a TEM-1 producing control E. coli strain commonly used in testing β-lactamase inhibitor activity, and which is resistant to amoxicillin by expressing TEM-1 β-lactamase. Peptide inhibitors that can inhibit TEM-1 function will lower minimum inhibitory concentration (MIC) of the amoxicillin against the resistant bacteria, which will be used to measure the potency of peptide inhibitors in bacteria. Bacterial susceptibility to amoxicillin and β-lactamase inhibitors were determined by broth microtiter dilution (BMD) according to the Clinical and Laboratory Standards Institute (CLSI) methodology. The tests were done using checkboard method with different amoxicillin concentrations (0-128 μg/ml). For the control group, clavulanic acid concentration was about 4 μg/ml.

The target in a further experiment is T1, PBP2a (Staphylococcus aureus, UniProt P07944).
T1 construct: purchased RayBiotech, GA
Nature of the experiment: In vitro binding assay, Bocillin FL binding to PBP2a (SDS-PAGE fluorescence). The conditions noted are these: preliminary data, FIG. 3A. The source says: More peptides were designed to target both PBP2a and β-lactamase which are predicted to enhance amoxicillin killing of MRSA. […] The top 6 best-scored peptides were synthesized. […] In the absence of peptide competitors, Bocillin FL bound to PBP2a and then gave rise to fluorescence signal when the protein was resolved on an SDS-PAGE gel.

The test system of the next experiment is MRSA strain NRS384. Briefly: Growth of MRSA strain NRS384 with peptide and amoxicillin. Type of experiment: cell-based, Staphylococcus aureus. The method, then:
In order to assess the potency of the peptides against MRSA, the peptides were tested on MRSA strain NRS384, which is widely used for studying MRSA infections.

Another experiment relates to NRS384. Briefly: Serial passage resistance selection of NRS384. It counts as cell-based, Staphylococcus aureus.
A further experiment deals with ATCC35218 cells. Briefly: Confocal microscopy of uptake of fluorescent labeled peptide. Type of experiment: cell-based, E. coli. The following applies: 5(6)-FAM label at N-terminus. The protocol:
To confirm that the CPP enhanced the E. coli uptake of the peptide, the BP100-T61-25 peptide was labeled with 5(6)-FAM [5-(and-6)-Carboxyfluorescein at the N-terminus and incubated with ATCC35218 cells. […] It is noted that significant enhancement of amoxicillin potency against resistant bacteria can be achieved by linking CPPs to peptide inhibitor.

The subject of a further experiment is MRSA strain (JE2). Briefly: Growth of MRSA strain JE2 with peptide and ceftizoxime. The following applies: JE2, 8 μg/ml ceftizoxime (FIG. 4). Type of experiment: cell-based, Staphylococcus aureus. The protocol:
Some of the MRSA strains also developed resistance against cephalosporin, which are improved β-lactams developed to overcome some of the early penicillin resistance. BP100-T61-25's synergy with Ceftizoxime, which is a third generation cephalosporin on a MRSA strain (JE2) that is resistant to cephalosporin, was tested.

For another experiment, the target named is TEM-1 (Escherichia coli, UniProt P62593). The following applies: literature peptide, Huang et al. 2003; cited from earlier work.

Residues, ends and D or L forms follow the SMILES beside them. Bounds are passed on as bounds.

T1 sequence (P07944 whole entry): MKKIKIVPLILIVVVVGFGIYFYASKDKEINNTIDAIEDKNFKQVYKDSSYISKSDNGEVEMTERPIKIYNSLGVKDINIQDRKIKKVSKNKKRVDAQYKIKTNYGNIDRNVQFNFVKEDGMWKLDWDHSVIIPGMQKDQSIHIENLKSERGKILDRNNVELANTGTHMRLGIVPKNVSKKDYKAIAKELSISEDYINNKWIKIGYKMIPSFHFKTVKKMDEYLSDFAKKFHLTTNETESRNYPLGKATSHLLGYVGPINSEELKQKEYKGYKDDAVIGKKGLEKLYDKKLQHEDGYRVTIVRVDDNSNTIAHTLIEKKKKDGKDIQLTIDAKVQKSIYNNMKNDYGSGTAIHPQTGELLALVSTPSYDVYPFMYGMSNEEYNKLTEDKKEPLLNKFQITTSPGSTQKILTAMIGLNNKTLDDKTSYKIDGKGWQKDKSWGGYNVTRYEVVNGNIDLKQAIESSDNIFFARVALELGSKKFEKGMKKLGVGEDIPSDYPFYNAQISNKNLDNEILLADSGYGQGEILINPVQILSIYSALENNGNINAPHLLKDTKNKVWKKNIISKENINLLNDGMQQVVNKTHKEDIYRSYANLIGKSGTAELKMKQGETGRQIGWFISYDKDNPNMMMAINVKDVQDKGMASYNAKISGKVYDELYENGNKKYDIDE
TEM-1, sequence (P62593 24-286 limits assumed): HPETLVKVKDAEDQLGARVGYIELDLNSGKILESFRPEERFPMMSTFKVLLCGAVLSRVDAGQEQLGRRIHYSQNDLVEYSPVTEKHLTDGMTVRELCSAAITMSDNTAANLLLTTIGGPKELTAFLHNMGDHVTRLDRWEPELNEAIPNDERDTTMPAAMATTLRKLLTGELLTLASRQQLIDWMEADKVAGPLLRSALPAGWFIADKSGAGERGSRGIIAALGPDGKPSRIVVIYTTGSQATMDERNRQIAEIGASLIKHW

As for “KFFKFFKFFKKTYLAQAAATG [Peptide T63-1, cell wall-permeating peptide attached to peptide T61-25]”, in experiment [1], the “enhancement of amoxicillin killing of ATCC35218” value (from here on “enhancement … of ATCC35218”) is “Significant enhancement of amoxicillin killing of bacteria”. Moreover, the “enhancement of amoxicillin potency compared with clavulanate” value in experiment [1] (ATCC35218, FIG. 1) is “enhanced amoxicillin potency significantly more than clavulanate”.
For “CFFKDELKTYLAQAAATG [Peptide T63-2, cell wall-permeating peptide attached to peptide T61-25]”, the “enhancement … of ATCC35218” value in experiment [1] is “moderate effect at enhancing amoxicillin potency”.
For the compound `CC(C)C[C@H](NC(=O)[C@H](Cc1ccc(O)cc1)NC(=O)[C@@H](NC(=O)[C@@H](N)CCCCN)[C@@H](C)O)C(=O)N[C@@H](C)C(=O)N[C@@H](CCC(N)=O)C(=O)N[C@@H](C)C(=O)N[C@@H](C)C(=O)N[C@@H](C)C(=O)N[C@H](C(=O)NCC(=O)O)[C@@H](C)O` [Peptide T61-25], on PBP2a, the “inhibition of Bocillin FL binding to PBP2a” value (“inhibition … to PBP2a” for short) was “inhibitory effect”.
With `CC(C)C[C@H](NC(=O)[C@H](C)NC(=O)[C@H](CCCNC(=N)N)NC(=O)[C@@H](NC(=O)[C@@H](NC(=O)[C@H](Cc1ccccc1)NC(=O)[C@@H](NC(=O)[C@@H](N)CCCCN)[C@@H](C)O)C(C)C)C(C)C)C(=O)N[C@@H](C)C(=O)N[C@@H](CO)C(=O)O` [Peptide T63-07], the “inhibition … to PBP2a” value on PBP2a is reported as “inhibitory effect”.
Turning to “KTFVVRALASCKFFKFFKFF [Peptide T63-07-CPP, T63-07 conjugated with CPP]”, the “peptide concentration significantly enhancing amoxicillin inhibition of MRSA growth” value in the experiment with MRSA strain NRS384 (NRS384, amoxicillin 32 and 64 μg/ml, FIG. 3B) came to 32 µg/mL.
As to `CC[C@H](C)[C@H](NC(=O)[C@H](CCCCN)NC(=O)[C@H](CCCCN)NC(=O)[C@H](Cc1ccccc1)NC(=O)[C@H](CC(C)C)NC(=O)[C@H](CCCCN)NC(=O)[C@@H](N)CCCCN)C(=O)N[C@@H](CC(C)C)C(=O)N[C@@H](CCCCN)C(=O)N[C@@H](Cc1ccc(O)cc1)C(=O)N[C@@H](CC(C)C)C(=O)N[C@@H](CCCCN)C(=O)N[C@H](C(=O)N[C@@H](Cc1ccc(O)cc1)C(=O)N[C@@H](CC(C)C)C(=O)N[C@@H](C)C(=O)N[C@@H](CCC(N)=O)C(=O)N[C@@H](C)C(=O)N[C@@H](C)C(=O)N[C@@H](C)C(=O)N[C@H](C(=O)NCC(=O)O)[C@@H](C)O)[C@@H](C)O` [BP100-T61-25] (H-KKLFKKILKYLKTYLAQAAATG-OH; N-terminus and C-terminus assumed), the “peptide concentration sufficient to inhibit bacterial growth after serial passage” value in the experiment with NRS384 (NRS384 passages 12-15, with 32 μg/ml amoxicillin) is 16 µg/mL. Moreover, in experiment [1], the “enhancement … of ATCC35218” value is listed as “Marked enhancement of amoxicillin (32 μg/ml) killing of bacteria”. Also, the “peptide dose close to the MIC” value in experiment [1] (ATCC 35218) is about 8 µg/mL. In addition, the “peptide concentration with strong inhibition of bacterial growth” value in experiment [1] (ATCC35218, with 32 μg/ml amoxicillin) was 8 to 16 µg/mL. Also, the “peptide concentration significantly inhibiting bacterial growth” value in experiment [1] (ATCC35218, without amoxicillin) stood at 16 µg/mL. Further, in the experiment with MRSA strain NRS384 (NRS384, amoxicillin 32 μg/ml, FIG. 3C), the “peptide concentration enhancing amoxicillin killing of MRSA” value was determined as 16 µg/mL. Moreover, the “peptide internalization into E. coli cells” value in the experiment with ATCC35218 cells is listed as “peptide internalization into E. coli cells was observed”. For the same compound, the “peptide concentration significantly enhancing ceftizoxime's killing of JE2” value in the experiment on MRSA strain (JE2) came out at 8 µg/mL.
For the compound `O=C(O)c1cn(C2CC2)c2cc(N3CCNCC3)c(F)cc2c1=O` [ciprofloxacin, reference compound], the MIC in the experiment on NRS384 (Staphylococcus aureus, NRS384, read-out: bacterial MIC to ciprofloxacin after serial passage) is over 256 µg/mL.
Regarding `C[C@H](NC(=O)[C@H](Cc1ccccc1)NC(=O)[C@H](CC(=O)O)NC(=O)CNC(=O)[C@H](CO)NC(=O)CNC(=O)CN)C(=O)N[C@@H](CCCNC(=N)N)C(=O)N[C@@H](CO)C(=O)N[C@@H](CO)C(=O)N[C@@H](Cc1ccc(O)cc1)C(=O)O` [Peptide T66-12], at PBP2a, the “inhibition … to PBP2a” value is given as “inhibitory effect”.
For the compound RRGHYY-NH2, the Ki at TEM-1 was 136 µM.
Regarding `CC1(C)S[C@@H]2[C@H](NC(=O)[C@H](N)c3ccc(O)cc3)C(=O)N2[C@H]1C(=O)O` [amoxicillin, reference compound], the MIC against MRSA strain NRS384 (Staphylococcus aureus) is over 256 µg/mL.
